Source: patent EP4520333A1, “SYK INHIBITORS FOR USE IN THE TREATMENT OF IMMUNE CHECKPOINT INHIBITION INDUCED ADVERSE EVENTS” (Albert-Ludwigs-Universität Freiburg, priority 2023, dated 2025)

How the values were obtained:
mice [1] = assay: Novel object recognition test; format: in vivo
Source text: (§1) The invention is further described by the following figures. These are not intended to limit the scope of the invention but represent preferred embodiments of aspects of the invention provided for greater illustration of the invention described herein. • Figure 1: Microglia show signs of activation upon anti-PD-1 treatment in the absence of tumor. (A-C) Histology of brain samples immunostained for Iba-1^+ cells from the cortex of mice treated with anti-PD-1 or isotype control on day 22 after treatment. (A) Representative images from each group are shown. Scale bars, 50µm. The scatter plots show the number of Iba-1^+ cells (per mm^2) in cortex (B) and hippocampus (C). The results (mean ± s.e.m.) were combined. The experiment was performed three times. The P-values were calculated using the unpaired student's t-test. (D) Representative images showing Imaris (Bitplane)-based 3D-reconstruction of Iba-1^+ microglia from the cortex of mice treated with anti-PD-1 or isotype control as indicated. Scale bar: 10µm. (E-H) Scatter plots showing Imaris-based automated quantification of microglial morphology from microglia the cortex of mice treated with anti-PD-1 or isotype control on day 22 after treatment. […] The P-values were calculated using the unpaired student's t-test. • Figure 2: Anti-PD-1 treatment causes neurocognitive deficits and increased CSF-1R and MHC-II expression on microglia. (A-B) Representative immunofluorescence images and scatter plot depicting the quantification of the ratio of extravascular versus intravascular FITC-dextran indicative of BBB leakage via extravasation of FITC-dextran in the cortex of either untreated, isotype-treated, or anti-PD-1-treated mice. […] (C-D) The scatter plot (C) and representative histogram (D) show the quantification (fold change of MFI) of CSF-1R (CD115) on microglia (CD45^lo CD11b^+) isolated from the CNS of mice treated with anti-PD-1 or isotype control on day 22. […] The P-values were calculated using the student's t-test (B, C, E, K-M) and paired samples Wilcoxon test (G, I). […] The P-values were calculated using the unpaired student's t-test. […]

[2] = tested on: cells isolated from BM and spleen; assay: Flow cytometry of peripheral immune cells from BM and spleen of melanoma-bearing mice; format: in vivo
Source text: as §1

mice [3] = assay: Elevated plus maze test; format: in vivo; conditions: melanoma bearing mice, anti-PD-1 plus Syk inhibitor vs anti-PD-1 plus vehicle (Fig. 7L day 17; Fig. 33A)
Source text: (§2) The invention is further described by the following figures. These are not intended to limit the scope of the invention but represent preferred embodiments of aspects of the invention provided for greater illustration of the invention described herein. • Figure 1: Microglia show signs of activation upon anti-PD-1 treatment in the absence of tumor. (A-C) Histology of brain samples immunostained for Iba-1^+ cells from the cortex of mice treated with anti-PD-1 or isotype control on day 22 after treatment. (A) Representative images from each group are shown. Scale bars, 50µm. The scatter plots show the number of Iba-1^+ cells (per mm^2) in cortex (B) and hippocampus (C). The results (mean ± s.e.m.) were combined. […] The P-values were calculated using the unpaired student's t-test. […] (E-H) Scatter plots showing Imaris-based automated quantification of microglial morphology from microglia the cortex of mice treated with anti-PD-1 or isotype control on day 22 after treatment. […] The P-values were calculated using the unpaired student's t-test. • Figure 2: Anti-PD-1 treatment causes neurocognitive deficits and increased CSF-1R and MHC-II expression on microglia. […] (C-D) The scatter plot (C) and representative histogram (D) show the quantification (fold change of MFI) of CSF-1R (CD115) on microglia (CD45^lo CD11b^+) isolated from the CNS of mice treated with anti-PD-1 or isotype control on day 22. […]

mice [4] = assay: Grip strength test; format: in vivo; conditions: melanoma bearing mice
Source text: as §2

B-cell lymphomas = conditions: in vitro; cited from earlier work
[5] = tested on: microglia (CD45lo CD11b+); assay: Flow cytometry of microglia / CD11b+ cells isolated from the CNS of mice; format: in vivo; conditions: melanoma bearing mice on CSF-1R inhibitor diet vs control diet (Fig. 6, Fig. 14)
Source text: as §2

lymphoma cells = conditions: reference (45); cited from earlier work

For `COc1cc(Nc2ncc(F)c(Nc3ccc4c(n3)N(COP(=O)(O)O)C(=O)C(C)(C)O4)n2)cc(OC)c1OC` [Fostamatinib], the “time spent exploring a novel object with respect to the total time (memory)” value (mice [1]; melanoma bearing mice, anti-PD-1 plus Syk inhibitor vs anti-PD-1 plus vehicle (Fig. 7K day 17; Fig. 33B)) was “reproducible”, the “peripheral myeloid compartment (CD45+, F4/80+ cells in BM and spleen)” value ([2]; anti-PD-1/isotype and second Syk inhibitor/vehicle (Fig. 33D-G)) was “No changes” and the “CD3+ T cells in the BM and spleen” value ([2]; anti-PD-1/isotype and second Syk inhibitor/vehicle (Fig. 33H and I)) was “expansion”. For the same compound, the “entries into open arms (exploratory)” value (mice [3]) was “reproducible” and the “grip strength normalized to body weight” value (mice [4]; anti-PD-1 plus Syk inhibitor or vehicle (Fig. 7M day 17; Fig. 33C)) was “reproducible”.

For `CCS(=O)(=O)N1CCN(c2ccc(Nc3ncc(C(N)=O)c(NC4CC4)n3)cc2)CC1` [Cerdulatinib], the “activity against B-cell lymphomas” value (B-cell lymphomas) is listed as “in vitro activity”.

In the case of `COc1ncc(F)cc1CNc1ccc(Cc2c[nH]c3ncc(C)cc23)c(F)n1` [PLX5622], the “neurocognitive function in novel object recognition test, anti-PD-1 treated mice” value (mice [1]; melanoma bearing mice treated with anti-PD-1 plus depleting agent or its control, day 23 (Fig. 6B, F, J, M, O)) is reported as “improved”, the “neurocognitive function in novel object recognition test, isotype treated mice” value (mice [1]; melanoma bearing mice treated with isotype antibody plus depleting agent or its control, day 23 (Fig. 6A, E)) is reported as “did not develop neurocognitive deficits” and the “CSF-1R positive cells (CD11b+ and CD11b+CD45lo cells in the CNS)” value [5] is reported as “depletion”. For the same compound, the “frequencies of CD45, CD11b, Ly6C and CD11c populations in the BM and spleen” value ([2]; CSF-1R inhibitor diet day -7 to day 23) was “did not alter” and the “grip strength normalized to body weight” value (mice [4]; isotype or anti-PD-1 plus depleting agent or its control, day 23 (Fig. 6C, D, G, H)) was “intact”.

In the case of `Cn1cc(-c2nc(N[C@@H]3CCCC[C@@H]3N)c(F)c3c2C(=O)NC3)cn1` [TAK-659], the “pro-survival, proliferative, chemoresistant, and activation effects promoted by the microenvironment” value (lymphoma cells) is listed as “impair”.
